Results as given in US20220031680A1, “Donecopride As Neuroprotective Agent In the Treatment of Neurodegenerative Diseases” (priority 2018, published 2022).

Assays:
Tau (AT100) = assay: Phosphorylation of Tau (AT100) in MAP-2 hippocampal neurons injured with Aβ1-42; type: cell-based, rat; details: Aβ1-42 injured hippocampal neurons; for effect on Tau hyperphosphorylation: Example 4
Method: (§1) The hippocampal neurons were exposed with Aβ solutions (see below) after 17 days of culture. The Aβ1-42 preparation was done following the procedure described by Callizot et al. (2013) J. Neurosci. Res. 91706-716. Briefly, Aβ1-42 peptide was dissolved in the defined culture medium mentioned above, at an initial concentration of 40 μM. This solution was gently agitated for 3 days at 37° C. in the dark and immediately used after being properly diluted in culture medium to the concentrations used (20 μM (plate 1) or 2.5 μM (plate 2) corresponding to 2 μM or 0.25 μM of oligomers (AβO) respectively).
(§2) Donecopride fumarate was solved in culture medium and preincubated 1 h before Aβ application. Aβ1-42 preparation was added to a final concentration of 20 or 2.5 μM (=2 μM or 0.25 μM of AβO, evaluated by automatic Western Blot) diluted in control medium in presence of Donecopride.
(§3) 24 hours after intoxication, the hippocampal neurons were fixed by a cold solution of ethanol (95%) and acetic acid (5%) for 5 min at −20° C. After permeabilization with 0.1% of saponin, cells were incubated for 2 h with:
b) mouse monoclonal antibody anti-phospho Tau (AT100) at dilution of 1/400 in PBS containing 1% fetal calf serum and 0.1% of saponin.
(§4) For each condition, 30 pictures (representative of the whole well area) per well were taken using ImageXpress (Molecular Devices) at 20× magnification. All images were taken with the same acquisition parameters. Analyses were performed automatically by using Custom Module Editor (Molecular Devices).
(§5) The following endpoints were assessed: • Total number of neurons (neuron survival, number of MAP-2 positive neurons) • Neurite network (in μm of MAP-2 positive neurons) • area of tau in neurons (μm^2, overlapping with MAP-2 positive neurons).
(§6) Injury: The hippocampal neurons were exposed with Aβ solutions (see below) after 17 days of culture. The Aβ1-42 preparation was done following the procedure described by Callizot et al. (2013) J. Neurosci. Res. 91:706-716. The batch number of the Aβ1-42 used in this study contains 10% of oligomers (quantification by WB as performed in Combes et al. (2015) J. Neurosci. Res. 93:633-643). Briefly, Aβ1-42 peptide was dissolved in the defined culture medium mentioned above, at an initial concentration of 40 μmol/1. This solution was gently agitated for 3 days at 37° C. in the dark and immediately used after being properly diluted in culture medium to the concentrations used (20 μmol/l or 2.5 μmol/l corresponding to 2 μmol/l or 0.25 μmol/l of oligomers (AβO) respectively). Aβ1-42 preparation was added to a final concentration of 20 or 2.5 μmol/l (respectively 2 μmol/l or 0.25 μmol/l of AβO, determined by automatic WB) diluted in control medium in presence of the compounds.
Immunostaining: MAP-2/AT100—After fixation and permeabilization, cells were incubated for 2 hours with: • a chicken polyclonal antibody anti microtubule-associated-protein 2 (MAP-2) at dilution of 1/1000 in PBS containing 1% fetal calf serum and 0.1% saponin (this antibody stains specifically cell bodies and neurites, allowing study of neuronal cell death and neurite network); and • a mouse monoclonal antibody anti-phospho Tau (AT100) at dilution of 1/100 in PBS containing 1% fetal calf serum and 0.1% saponin.
For each condition, 30 pictures (representative of the whole well area) per well were taken using ImageXpress® (Molecular Devices) with 20× magnification. All images were generated using the same acquisition parameters. From images, analyses were directly and automatically performed by Custom Module Editor® (Molecular Devices). The following read-outs were investigated: • Total number of neurons (neuron survival, number of MAP-2 positive neurons) • Neurite network (in μm of MAP-2 positive neurons) • Area of AT100 (μm^2, overlapping with MAP-2 positive neurons).

[1] = system: rat primary hippocampal neurons injured with Aβ 1-42; assay: Number of synapses (PSD95/SYN overlap) in primary hippocampal neurons injured with Aβ1-42; type: cell-based
Method: as §1, §2, §3
a) mouse monoclonal antibody anti post synaptic density 95 kDa (PSD95) at a dilution of 1/100 in PBS containing 1% fetal calf serum and 0.1% of saponin.
b) Rabbit polyclonal antibody anti-synaptophysin (SYN) at the dilution of 1/100 in PBS containing 1% fetal calf serum and 0.1% of saponin.
For each condition, 40 pictures per well were taken using ImageXpress (Molecular Devices) with 40× magnification. All images were taken with the same acquisition parameters.
Synapses evaluation was performed automatically by using Custom module editor (Molecular Devices).
The following endpoints were assessed: • Total number of synapses (overlapping between PSD95/SYN).
To assess the formation of synapses, the distribution of PSD-95, a post-synaptic marker, and synaptophysin, a pre-synaptic marker, was studied. A structure positive for both PD-95 and synaptophysin staining was considered as a synapse.
as §6
Immunostaining: PSD95 and SYN—After fixation and permeabilization, cells were incubated for 2 hours with: • mouse monoclonal antibody anti post synaptic density 95 kDa (PSD95) at dilution of 1/200 in PBS containing 1% fetal calf serum and 0.1% saponin; • rabbit polyclonal antibody anti-synaptophysin (SYN) at the dilution of 1/100 in PBS containing 1% fetal calf serum and 0.1% saponin.
For each condition, 40 pictures per well were taken using ImageXpress (Molecular Devices) with 40× magnification. All images were taken with the same conditions. Synapses evaluation were performed automatically by using Custom Module Editor® (Molecular Devices). The following endpoints were assessed: • Number of synapses (overlapping between PSD95/SYN)

[2] = system: rat primary hippocampal neurons injured with Aβ 1-42; assay: Survival and neurite network of MAP-2 neurons in primary hippocampal neurons injured with Aβ1-42; type: cell-based
Method: Rat hippocampal neurons were cultured as described by Callizot et al. (2013) J. Neurosci. Res. 91706-716. Pregnant female rats of 17 days gestation (Rats Wistar; Janvier Labs France) were killed using a deep anesthesia with CO2 chamber followed by a cervical dislocation. Then, fetuses were removed from the uterus and immediately placed in ice-cold L15 Leibovitz medium with a 2% penicillin (10,000 U/ml) and streptomycin (10 mg/ml) solution (PS) and 1% bovine serum albumin (BSA). Hippocampal neurons were treated for 20 min at 37° C. with a trypsin-EDTA solution at a final concentration of 0.05% trypsin and 0.02% EDTA. The dissociation was stopped by adding Dulbecco's modified Eagle's medium (DMEM) with 4.5 g/l of glucose, containing DNAse I grade II (final concentration 0.5 mg/ml) and 10% fetal calf serum (FCS). Cells were mechanically dissociated by three forced passages through the tip of a 10-ml pipette and then centrifuged at 515×g for 10 min at 4° C. The supernatant was discarded, and the pellet was resuspended in a defined culture medium consisting of Neurobasal medium with a 2% solution of B27 supplement, 2 mmol/l of L-glutamine, 2% of PS solution, and 10 ng/ml of brain-derived neurotrophic factor (BDNF). Viable cells were counted in a Neubauer cytometer, using the trypan blue exclusion test. Cells were seeded at a density of 20,000 per well in 96-well plates precoated with poly-L-lysine and cultured at 37° C. in an air (95%)-CO2 (5%) incubator. The medium was changed every 2 days.
as §1, §2
Donecopride fumarate (Donecopride) was tested on one culture in a 96 well plate (6 wells per conditions). The compound was preincubated one hour before Aβ application. The following conditions were assessed:
as §3
a) chicken polyclonal antibody anti microtubule-associated-protein 2 (MAP-2), diluted at 1/1000 in PBS containing 1% fetal calf serum and 0.1% of saponin (this antibody allows the specific staining of neuronal cell bodies and neurites; and allow the study of neuronal cell death and neurite network).
as §4, §5
All values are expressed as mean+/−SEM. Statistical analysis was performed by one-way ANOVA, followed by PLSD Fisher's test, p<0.05 were considered significant.
Rat hippocampal neurons were cultured as described by Callizot et al. (2013) J. Neurosci. Res. 91:706-716. […]

[3] = Aβ1-42 injured hippocampal neurons, Example 4

| Structure (SMILES) | effect on Tau hyperphosphorylation (Tau (AT100)) | concentration with significant reduction of Tau hyperphosphorylation (Tau (AT100); Example 5 (FIG. 9D)) [pM] | doses increasing the number of synapses ([1]; Aβ1-42 injured hippocampal neurons (FIG. 6)) [nM] | concentration with neuroprotective effect on synapses ([1]; Aβ1-42 injured hippocampal neurons, Example 5 (FIG. 10)) [pM] | doses with neuroprotective effect on survival ([2]; Aβ1-42 injured hippocampal neurons (FIG. 5A)) [nM] | neurite length normalized by number of neurons (neuritic growth) ([2]; Aβ1-42 injured hippocampal neurons (FIG. 5C)) | effect on neurite network [2, 3] | neuroprotective effect (survival, neurite and synaptic network) [2, 3] | concentration up to which active (survival and neurite network) ([2]; Aβ1-42 injured hippocampal neurons, Example 5 (FIG. 9A,B,C)) [µM] |
| --- | --- | --- | --- | --- | --- | --- | --- | --- | --- |
| COc1cc(N)c(Cl)cc1C(=O)CCC1CCN(CC2CCCCCC2)CC1 [MR31192] | important effect | 100 | 1 to 5 | 500 | 1 to 5 | neurotrophic effect | very large effect was also observed on neurite network at every tested dose | very strong neuroprotective effect at very low doses | ≤ 500 |
| COc1cc(N)c(Cl)cc1C(=O)CCC1CCN(CC2CCNCC2)CC1 [MR31176] | significant effect on Tau hyperphosphorylation was also observed at high concentration | – | – | – | – | – | – | neuroprotective effect at high concentrations | – |
